This is an account of results in ChEMBL document CHEMBL1201862, “PubChem BioAssay data set” (2004).

The source made the active and inactive calls. A value given as a limit tells only on which side of the number the result lay.

In assay [1] the target is T1, Rac GTPase-activating protein 1 (Homo sapiens, UniProt Q9H0H5).
T1 sequence (Q9H0H5 whole entry): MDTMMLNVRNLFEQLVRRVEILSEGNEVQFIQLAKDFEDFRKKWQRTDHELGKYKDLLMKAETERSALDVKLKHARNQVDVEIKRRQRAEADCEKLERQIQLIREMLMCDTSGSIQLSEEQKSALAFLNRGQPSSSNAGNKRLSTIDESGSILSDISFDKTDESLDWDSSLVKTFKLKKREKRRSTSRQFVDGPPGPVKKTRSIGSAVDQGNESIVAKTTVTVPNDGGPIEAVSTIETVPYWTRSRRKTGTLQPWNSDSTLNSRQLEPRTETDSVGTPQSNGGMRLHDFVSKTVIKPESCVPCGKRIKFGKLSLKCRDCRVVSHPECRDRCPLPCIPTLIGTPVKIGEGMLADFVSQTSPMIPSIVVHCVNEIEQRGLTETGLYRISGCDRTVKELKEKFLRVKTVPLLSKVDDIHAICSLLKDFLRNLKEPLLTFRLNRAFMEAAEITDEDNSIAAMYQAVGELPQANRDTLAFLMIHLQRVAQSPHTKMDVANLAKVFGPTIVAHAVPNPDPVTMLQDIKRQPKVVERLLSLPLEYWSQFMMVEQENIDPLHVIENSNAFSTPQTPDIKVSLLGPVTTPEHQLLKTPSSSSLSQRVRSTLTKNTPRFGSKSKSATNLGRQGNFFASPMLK
Kind of assay: blockers of MgcRacGAP-driven Rac1 GTP hydrolysis – biochemical, ADP Hunter fluorescence, primary and confirmatory, confirmation (AID 624330). The assay is classed as functional.

Assay [2] can be described thus: IC50 of Artemis nuclease activity blockers – biochemical, fluorescence intensity, dose response (AID 720701).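 Also: Artemis endonuclease enzyme.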 It counts as functional.
Assay [3] has as its target Induced myeloid leukemia cell differentiation protein Mcl-1 (Homo sapiens, UniProt Q07820). It counts as functional.
In assay [4] the target is T2, Polyadenylate-binding protein 1 (Homo sapiens, UniProt P11940). Kind of assay: MLLE domain peptide-binding blockers, IC50 – biochemical, fluorescence polarization, FITC-PAM2 peptide, dose response (AID 602259). It counts as functional. As to conditions: read-out: IC50_Mean. A general note: Fluorescence polarisation rises when a labelled molecule tumbles more slowly, as on binding a larger partner.

The target of assay [5] is Glutathione-S-transferase (Schistosoma japonicum, UniProt Q26513). Kind of assay: GST-antibody interaction or FRET quenching – biochemical, TR-FRET, artefact control for Vif-APOBEC3G degradation inhibitor project, dose response (AID 1117362). It counts as functional. On the technique in general: In TR-FRET formats the signal depends on donor and acceptor labels being close together.

The target in assay [6] is T2, Polyadenylate-binding protein 1. Nature of the assay: MLLE binding blockers, Cy5 peptide tracer – biochemical, fluorescence polarization, Cy5-PAM2 peptide, secondary, miRNA deadenylation inhibitor project, dose response (AID 602260). The assay is classed as functional. As to conditions: read-out: IC50_Mean.
The nature of assay [7]: blockers of HIV-1 envelope-mediated cell-cell fusion – cherry-pick, dose response (AID 652057). It counts as functional, cell-based.
Assay [8] in a line: blockers of HIV-1 ZM109 envelope-driven cell-cell fusion – HeLa effector, CEM target cells, luciferase, cherry-pick, dose response (AID 652058).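 Also: luciferase signal from HIV-1 Env mediated cell-cell fusion of effector and target cells.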 The assay is classed as functional, cell-based.
Assay [9] is described as follows: HIV-1 AD8 envelope cell-cell fusion blockers – cherry-pick, dose response (AID 652062).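 Also: luciferase signal from cell-cell fusion driven by HIV-1 clade B AD8 Env; potency is for inhibitors of fusion seen as a drop in luminescence.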 It counts as functional, cell-based.
Assay [10] is described as follows: inhibition of Env-driven cell fusion – HIV entry, plate reader, dry powder, dose response (AID 687023). The assay is classed as functional, cell-based.
The next assay concerns the target T3, Streptokinase A (Streptococcus pyogenes serotype M1, UniProt P10520).
T3 sequence (P10520 whole entry): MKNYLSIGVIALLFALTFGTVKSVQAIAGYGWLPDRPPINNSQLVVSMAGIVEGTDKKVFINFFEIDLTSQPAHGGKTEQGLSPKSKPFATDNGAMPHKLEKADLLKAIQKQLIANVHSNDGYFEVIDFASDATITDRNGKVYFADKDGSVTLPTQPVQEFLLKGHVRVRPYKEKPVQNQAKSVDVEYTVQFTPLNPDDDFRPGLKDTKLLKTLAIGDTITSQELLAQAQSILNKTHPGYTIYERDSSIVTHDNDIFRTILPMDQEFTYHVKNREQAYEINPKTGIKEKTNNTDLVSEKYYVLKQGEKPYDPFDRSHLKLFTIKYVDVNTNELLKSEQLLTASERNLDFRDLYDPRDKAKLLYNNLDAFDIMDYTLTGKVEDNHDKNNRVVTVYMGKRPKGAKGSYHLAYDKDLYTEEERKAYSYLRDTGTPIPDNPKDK
Kind of assay: viability-normalized secreted streptokinase activity reduction – plasminogen activation absorbance, OD405, dose response (AID 1914).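 Also: secreted streptokinase activity via plasminogen activation per viability signal from cell pellet.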 The assay is classed as functional, Streptococcus pyogenes M1 GAS.

The nature of assay [11]: Counterscreen for inhibitors of Trypanosoma brucei methionyl tRNA synthetase (MetRS): Luminescence-based cell-based high throughput dose response assay to identify compounds that are cytotoxic to Jurkat human T lymphocyte cells. It counts as functional. Background: A counterscreen serves to expose hits that act by an unwanted route or on another target.
A short description of assay [12]: Late stage counterscreen for inhibitors of Trypanosoma brucei methionyl tRNA synthetase (MetRS): Luminescence-based cell-based high throughput dose response assay to identify compounds that are cytotoxic to Jurkat human T lymphocyte cells. It counts as functional.
Assay [13] can be described thus: Luminescence Cell-Based Dose Retest to Confirm Inhibitors of Cancer Stem Cells. [Related pubchem assays (depositor defined):AID2717, AID2721]. The assay is classed as functional. As to conditions: Homo sapiens.
The target of assay [14] is T4, Methionyl-tRNA synthetase, putative (Trypanosoma brucei brucei, UniProt Q38C91).
T4 sequence (Q38C91 whole entry): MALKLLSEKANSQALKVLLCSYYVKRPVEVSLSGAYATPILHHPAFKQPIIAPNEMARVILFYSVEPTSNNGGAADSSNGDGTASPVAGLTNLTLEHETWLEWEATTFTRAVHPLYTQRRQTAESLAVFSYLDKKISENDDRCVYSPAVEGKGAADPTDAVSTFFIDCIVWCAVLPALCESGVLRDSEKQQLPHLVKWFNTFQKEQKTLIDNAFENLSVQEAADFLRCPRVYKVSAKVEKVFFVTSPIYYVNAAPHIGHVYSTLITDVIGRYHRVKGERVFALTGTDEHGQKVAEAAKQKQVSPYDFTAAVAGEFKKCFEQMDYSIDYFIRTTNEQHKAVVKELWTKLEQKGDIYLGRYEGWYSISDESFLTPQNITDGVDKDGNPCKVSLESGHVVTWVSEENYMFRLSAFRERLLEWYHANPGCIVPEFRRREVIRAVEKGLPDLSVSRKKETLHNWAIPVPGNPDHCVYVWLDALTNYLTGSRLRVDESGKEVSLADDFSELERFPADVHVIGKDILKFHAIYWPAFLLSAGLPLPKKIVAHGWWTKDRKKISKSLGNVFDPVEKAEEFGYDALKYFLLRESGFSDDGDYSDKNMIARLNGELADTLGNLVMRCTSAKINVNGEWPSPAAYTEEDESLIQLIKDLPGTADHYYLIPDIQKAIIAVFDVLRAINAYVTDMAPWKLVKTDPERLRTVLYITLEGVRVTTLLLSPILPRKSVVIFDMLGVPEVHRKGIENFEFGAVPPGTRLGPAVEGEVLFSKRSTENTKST
It counts as functional, Trypanosoma brucei brucei strain 927/4 GUTat10.1.

The target of the next assay is Cytochrome P450 2D6 (Homo sapiens, UniProt P10635).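 Also: CYP2D6 member of a cytochrome P450 panel assay.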
Assay [15] concerns Streptococcus sp. 'group A'. Kind of assay: Streptococcus pyogenes SK(-)GAS viability under kanamycin – luminescence, BacTiterGlo, confirmation, counter-screen for streptokinase expression inhibitor project, dose response (AID 1900). It counts as functional, organism-based.
A further assay concerns Streptococcus. Nature of the assay: GAS UMAA2166 growth inhibition – luminescence, BacTiterGlo, counter-screen for streptokinase expression inhibitor project, dose response (AID 1915).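 Also: potency for reduction of bacterial viability or growth.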 It counts as functional, organism-based.
In assay [16] the target is T4, Methionyl-tRNA synthetase, putative. The assay is classed as functional, Trypanosoma brucei brucei strain 927/4 GUTat10.1. The source holds these as a separate data set.
A further assay addresses Paired box protein Pax-8 (Homo sapiens, UniProt Q06710). Nature of the assay: PAX8 transcriptional activity inhibition in RMG-I – RMG-I cells, luciferase, cherry-pick, dose response (AID 687027).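 Also: luciferase reporter driven by Pax8 target thyroperoxidase promoter measured by SteadyGlo luminescence.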 The assay is classed as functional, cell-based.
A short description of assay [17]: EF1alpha-driven Renilla reporter with control 3'UTR suppression – Clone20-Shn3RL cells, dual-Glo, cherry-pick, set 2, counter-screen for Shn3 3'UTR targeting project, dose response (AID 720724). It counts as functional, cell-based. Particulars: Dual-Go Shn3RL.
Assay [18] is described as follows: blockers of bursicon-stimulated LGR2 cAMP reporter – cell-based, HEK293, CRE-luciferase reporter, cherry pick, set 2, dose response (AID 743343).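 Also: transfected cells were stimulated with diluted bursicon conditioned medium after compound addition.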 The assay is classed as functional.
A short description of assay [19]: Shn3 3'UTR reporter signal decrease – cell-based, Clone20 osteoblasts, firefly luciferase, cherry-pick, set 2, Schnurri-3 inhibitor project, dose response (AID 720490).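 Also: actives lower the luminescence signal as inhibitors.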 The assay is classed as functional.
A short description of assay [20]: loss of viability in HepG2 cells – cell-based, CellTiter-Glo, cherry-picked, cytotoxicity control for Shn3 inhibitor project, dose response (AID 624134). The assay is classed as functional.
The nature of assay [21]: blockade of melanocortin 4 receptor signaling – cell-based, plate reader, cherry pick, counter-screen for LGR2 antagonist project, dose response (AID 743444).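 Also: transfected HEK 293 cells stimulated with alpha-MSH peptide; potency of inhibitors of the alpha-MSH evoked signal.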 It counts as functional.
Assay [22] is described as follows: viability loss in HEK293 cells – cell-based, plate reader, cherry-picked samples, cytotoxicity control, dose response (AID 743446). It counts as functional.
For assay [23], the target named is Beta-2 adrenergic receptor (Homo sapiens, UniProt P07550). Kind of assay: ADRB2 activation measured by internalization – cell-based, FAP fluorogen, flow cytometry, cherry pick 1, dose response (AID 588763). The assay is classed as functional.
Assay [24] is described as follows: toxicity toward HepG2 liver cells – cell-based, plate reader, cherry-pick, antagonist series, cytotoxicity control, dose response (AID 743416). It counts as functional.
Assay [25] can be described thus: non-specific 3'UTR reporter inhibition in Clone20-Shn3RL – cell-based, Renilla luciferase, cherry-picked, counter-screen for Shn3 inhibitor project, dose response (AID 624133). It counts as functional.
Assay [26] in a line: Shn3 transcript knock-down in Clone20 cells – cell-based, qPCR, cherry-pick, dose response (AID 743415). The assay is classed as functional.
Assay [27] can be described thus: reduction of Shn3 3'UTR-driven luciferase in osteoblasts – cell-based, Clone20 osteoblasts, firefly luciferase, cherry-picked, dose response (AID 624132).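 Also: firefly luciferase luminescence from reporter carrying the Shn3 3'UTR in osteoblasts.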 The assay is classed as functional.
Assay [28] is described as follows: A549 cell cytotoxicity, dose response, cytotoxicity control, plate reader, cherry-pick, antagonist series (AID 743412). It counts as functional, cell-based.
The target of assay [29] is T5, NAD-dependent protein deacylase sirtuin-5, mitochondrial (Homo sapiens, UniProt Q9NXA8). Nature of the assay: sirtuin-5 deacylation blockers, concentration series – biochemical, fluorescence imaging, cherry-pick, set 5, dose response (AID 720591).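 Also: desuccinylation of succinyl peptide AMC substrate read as fluorescence after trypsin release; potency of inhibitors that lower fluorescence and may act on trypsin instead.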
The nature of assay [30]: viability loss in MITF-independent A375 cells – cell-based, CellTiter-Glo luminescence, dry powder, set 2, counter-screen for MITF inhibitor project, dose response (AID 624489).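 Also: actives are compounds lowering A375 viability meaning general cytotoxicity.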 It counts as functional. As to conditions: A-375.
Assay [31] can be described thus: cytotoxicity in MITF-independent A375 cells – cell-based, CellTiter-Glo luminescence, dry powder, set 4, counter-screen for MITF inhibitor project, dose response (AID 624364).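 Also: A375 melanoma cells are MITF independent so this is a counter screen.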 It counts as functional. As to conditions: A-375.
Assay [32] addresses T5, NAD-dependent protein deacylase sirtuin-5, mitochondrial. Kind of assay: blockers of sirtuin-5 peptide desuccinylation – biochemical, fluorescence imaging, cherry-pick, set 6, dose response (AID 720597).

T2 sequence (P11940 whole entry, the tested form may be a part): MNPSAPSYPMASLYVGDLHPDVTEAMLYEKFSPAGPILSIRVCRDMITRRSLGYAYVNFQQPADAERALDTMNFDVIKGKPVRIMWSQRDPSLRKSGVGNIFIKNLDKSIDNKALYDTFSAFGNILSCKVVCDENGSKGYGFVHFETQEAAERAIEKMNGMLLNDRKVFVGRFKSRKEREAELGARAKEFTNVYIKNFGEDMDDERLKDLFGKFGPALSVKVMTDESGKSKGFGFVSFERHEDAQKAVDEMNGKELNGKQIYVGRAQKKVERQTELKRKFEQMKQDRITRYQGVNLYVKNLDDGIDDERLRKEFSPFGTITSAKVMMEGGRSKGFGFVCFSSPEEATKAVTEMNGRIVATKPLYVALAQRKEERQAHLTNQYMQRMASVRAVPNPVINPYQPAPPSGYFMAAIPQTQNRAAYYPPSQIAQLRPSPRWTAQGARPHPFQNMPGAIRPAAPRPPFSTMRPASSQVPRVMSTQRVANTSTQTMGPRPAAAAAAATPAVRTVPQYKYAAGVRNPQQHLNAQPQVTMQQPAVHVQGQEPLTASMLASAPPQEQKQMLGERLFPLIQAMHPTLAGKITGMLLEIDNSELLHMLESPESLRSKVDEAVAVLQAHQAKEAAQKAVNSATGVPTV
T5 sequence (Q9NXA8 whole entry): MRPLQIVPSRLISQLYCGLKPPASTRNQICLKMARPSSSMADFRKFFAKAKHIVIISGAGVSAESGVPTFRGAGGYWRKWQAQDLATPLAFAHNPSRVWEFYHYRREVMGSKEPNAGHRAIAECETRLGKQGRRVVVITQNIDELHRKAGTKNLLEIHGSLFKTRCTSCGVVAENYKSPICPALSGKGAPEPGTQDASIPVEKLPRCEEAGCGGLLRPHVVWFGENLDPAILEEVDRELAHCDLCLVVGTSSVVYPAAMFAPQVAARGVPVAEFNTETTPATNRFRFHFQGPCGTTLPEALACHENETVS
Glutathione-S-transferase, sequence (Q26513 whole entry): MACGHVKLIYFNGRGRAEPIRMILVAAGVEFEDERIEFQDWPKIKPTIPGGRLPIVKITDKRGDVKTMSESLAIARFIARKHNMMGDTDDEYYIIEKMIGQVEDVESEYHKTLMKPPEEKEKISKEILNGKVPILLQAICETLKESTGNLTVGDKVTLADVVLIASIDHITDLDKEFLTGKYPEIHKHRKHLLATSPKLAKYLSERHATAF
Cytochrome P450 2D6, sequence (P10635 whole entry): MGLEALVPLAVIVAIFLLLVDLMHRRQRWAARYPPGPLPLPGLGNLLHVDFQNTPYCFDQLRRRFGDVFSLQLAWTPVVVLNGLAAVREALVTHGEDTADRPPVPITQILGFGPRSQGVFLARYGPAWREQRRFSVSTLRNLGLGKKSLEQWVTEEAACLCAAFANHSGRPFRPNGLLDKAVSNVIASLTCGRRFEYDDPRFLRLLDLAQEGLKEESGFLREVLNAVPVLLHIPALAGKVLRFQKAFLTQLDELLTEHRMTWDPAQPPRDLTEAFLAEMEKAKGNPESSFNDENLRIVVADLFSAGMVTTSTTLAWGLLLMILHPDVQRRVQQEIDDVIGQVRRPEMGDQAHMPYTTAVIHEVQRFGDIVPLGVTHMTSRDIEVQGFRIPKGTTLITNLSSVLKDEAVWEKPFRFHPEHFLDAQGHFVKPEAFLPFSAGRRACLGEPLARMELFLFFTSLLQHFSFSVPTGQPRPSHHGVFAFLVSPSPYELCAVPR
Induced myeloid leukemia cell differentiation protein Mcl-1, sequence (Q07820 whole entry, the tested form may be a part): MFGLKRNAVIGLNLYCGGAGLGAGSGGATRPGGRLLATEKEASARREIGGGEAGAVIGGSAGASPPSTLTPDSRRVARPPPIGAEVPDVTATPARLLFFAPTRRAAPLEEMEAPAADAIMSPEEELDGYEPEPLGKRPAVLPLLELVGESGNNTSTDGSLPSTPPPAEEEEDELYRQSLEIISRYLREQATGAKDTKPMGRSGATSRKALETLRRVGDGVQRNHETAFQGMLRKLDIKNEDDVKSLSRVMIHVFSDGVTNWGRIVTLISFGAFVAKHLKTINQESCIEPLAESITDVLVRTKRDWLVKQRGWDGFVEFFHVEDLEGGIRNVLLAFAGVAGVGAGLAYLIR
Paired box protein Pax-8, sequence (Q06710 whole entry): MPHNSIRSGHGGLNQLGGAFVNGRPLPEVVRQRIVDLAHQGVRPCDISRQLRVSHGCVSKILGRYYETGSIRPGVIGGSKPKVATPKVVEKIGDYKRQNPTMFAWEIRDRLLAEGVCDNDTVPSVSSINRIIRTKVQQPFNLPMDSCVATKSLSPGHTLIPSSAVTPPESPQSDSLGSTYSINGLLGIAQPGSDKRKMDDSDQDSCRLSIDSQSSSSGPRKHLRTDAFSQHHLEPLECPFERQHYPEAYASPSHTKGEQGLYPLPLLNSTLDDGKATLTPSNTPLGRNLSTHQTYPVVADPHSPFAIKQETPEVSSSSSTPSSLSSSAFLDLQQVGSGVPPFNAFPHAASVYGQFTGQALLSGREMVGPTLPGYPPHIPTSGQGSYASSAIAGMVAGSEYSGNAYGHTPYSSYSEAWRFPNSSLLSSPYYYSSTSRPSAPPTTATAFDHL
Beta-2 adrenergic receptor, sequence (P07550 whole entry): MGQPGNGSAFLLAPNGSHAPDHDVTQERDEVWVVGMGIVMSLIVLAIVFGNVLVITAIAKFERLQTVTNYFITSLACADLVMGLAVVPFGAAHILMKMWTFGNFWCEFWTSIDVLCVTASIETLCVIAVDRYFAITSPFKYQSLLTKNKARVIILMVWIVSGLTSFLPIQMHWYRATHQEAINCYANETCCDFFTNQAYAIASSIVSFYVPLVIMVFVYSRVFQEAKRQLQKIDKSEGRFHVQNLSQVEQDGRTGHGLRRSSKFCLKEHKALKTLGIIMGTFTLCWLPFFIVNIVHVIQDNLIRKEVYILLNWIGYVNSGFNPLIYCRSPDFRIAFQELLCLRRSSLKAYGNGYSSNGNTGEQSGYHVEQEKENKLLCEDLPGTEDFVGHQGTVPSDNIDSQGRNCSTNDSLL

With `COc1ccc2c3c(cccc13)N(C)N=C2C`, the IC50 in [1] is 34.4 µM (active); in assay [2], > 20 µM (inactive); in assay [3] it was 1.33 µM (active); in [4], > 66 µM (inactive); in [5], 36.6 µM (active); in assay [6], > 66 µM (inactive).
In the case of `Cn1c(C(=O)N2CCN(c3nc4ccccc4s3)CC2)cc2sccc21`, the AC50 in [7] is 3.01 µM (active); in assay [8] it was 4.97 µM (active); in [9], 16.4 µM (active); in [10] it was 8.02 µM (active).
For the molecule `O=C(NNC(=O)c1cc(-c2ccc(Cl)c(Cl)c2)nc2ccccc12)Nc1ccccc1`, the results for the EC50 (on Streptokinase A; in assay [15]; in the assay on Streptococcus) were > 150 µM (not active), 4.69 µM (active) and 13.7 µM (active), respectively. The IC50 in [11] was 34.2 µM (inactive); in assay [12], 22.4 µM (inactive); in assay [14], 1.64 µM (active); in assay [16], 3.12 µM (active). Further, the values for the AC50 (in [13]; at Cytochrome P450 2D6) were 4.94 µM (active) and 20 µM (inconclusive), respectively.
For `Cn1nnnc1Sc1ncnc2scc(-c3ccc(Br)cc3)c12`, the AC50 was 3.56 µM (active) at Paired box protein Pax-8; 5.09 µM (active) in assay [17]; 8.94 µM (active) in assay [18]; 5.82 µM (active) in [19]; 19.2 µM (active) in assay [20]; 15.6 µM (active) in assay [21]. Moreover, the AC50 is 11.2 µM (active) in [22]; 7.97 µM (active) in assay [24]; 14.4 µM (active) in [25]; 17.6 µM (active) in assay [26]; 0.334 µM (active) in assay [27]; 6.82 µM (active) in assay [28]. Besides, in assay [23], the EC50 was 8.44 µM (active).
Turning to `CC(C)C[C@H](NS(=O)(=O)c1ccc(F)cc1F)C(=O)N1CCC[C@H]1C(=O)NCc1ccccc1`, in [29], the AC50 is 15.3 µM (active).
Turning to `C=C1C(=O)OC2C1CC/C(C)=C\CCC1(C)OC21` (stereo unspecified), the AC50 in [30] was 43.9 µM (active); in [31], > 70 µM (inactive).
Take `O=C(O)CCNc1ncnc2ccccc12`: the AC50 in assay [32] was > 30 µM (inactive).

What is called AC50 is the concentration at which the activity in the assay is half-maximal. Broadly, the EC50 is the midpoint of the concentration-response curve.
